According to article PMC3378324 (Febs Letters, 2012):
Where no end group is shown, it is not given here.

Assays:
Hck-SH3 [1] = details: ITC, ref [12]; cited from earlier work
Fyn(WT)-SH3 = Fyn(WT)-SH3 (Homo sapiens, UniProt P06241); assay: Yeast two-hybrid assay; type: cell-based; details: negative control for RT-loop selection
Hck-SH3 [2] = assay: Yeast two-hybrid assay; type: cell-based, human; details: negative control for RT-loop selection
Fyn(R96I)-SH3 = assay: Yeast two-hybrid assay; type: cell-based, human; details: negative control for RT-loop selection

Fyn(WT)-SH3, sequence (P06241 82-143 limits assumed): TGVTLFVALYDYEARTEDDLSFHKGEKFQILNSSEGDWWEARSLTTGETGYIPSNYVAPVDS

Substance: PTPPTPAPRTMPPTKPQPPARPPP [ALIXPI]
- binding characteristics toward Hck-SH3 compared with ALIXV+PRR (Hck-SH3 [1]): did not fully reproduce the binding characteristics of ALIXV+PRR toward Hck-SH3

Substance: SAM68: Src-associated in mitosis 68 kDa (SAM68) protein
- yeast two-hybrid interaction strength (Fyn(WT)-SH3): interacted with comparable strength with every SH3 domain
- yeast two-hybrid interaction strength (Hck-SH3 [2]): interacted with comparable strength with every SH3 domain
- yeast two-hybrid interaction strength (Fyn(R96I)-SH3): interacted with comparable strength with every SH3 domain
